From patent US9266829B2, “Quinone compounds and their uses for the treatment of cancer” (Onco-NX Limited, priority 2012, dated 2016)
Values after ≈ are worked out from the molar mass of the structure shown. Values joined by “and” are separate entries in the source; they are usually repeats but may differ in a detail not shown here. Identical values can stand only once. Like-named read-outs stand apart in the source and are kept apart here.

Tests used:
MDA468 = experiment: IC50 by MTT assay on MDA468 cells; assay type: cell-based, human
MDA NQ01 = experiment: IC50 by MTT assay on NQ01 cells; assay type: cell-based, human; settings: for MDA468 to NQ01 differential: ratio of IC50 values
physchem [1] = assay type: physicochemical; settings: buffer, pH 7
physchem [2] = assay type: physicochemical; settings: buffer, pH 7.4
Experimental: The stability of esters and their hydrolysis products was measured in solution. (50 μM Es5 in Tris buffer (0.1 mol dm^−3) at pH 7.4). Samples were taken at timed intervals up to 24 hours and analysed by HPLC. The detection wavelength was 330 nm. Chromatographic analysis was carried out by isocratic elution with 30:70 MeOH: Tris buffer (0.1 mol dm^−3, pH 7.4), at 1 ml min^−1. The chromatographic separation of the drug was achieved using a Hypersil ODS column with 250 mm×4.6 mm I.D.

H460 NSCLC = experiment: In vivo hollow fibre assay, H460; settings: fibres at s.c. site; i.p. dosing days 3-6; nude mice
Experimental: (§1) The activity of Es5 (4.65) was evaluated in vivo against 3 cancer cell lines H460, MDA-MB-468-NQ01 and MDA-MB-468-MOCK using the in vivo hollow fibre assay (HFA), with fibres implanted at both intraperitoneal (i.p.) and subcutaneous (s.c.) sites. Es5 and the control agent Doxorubicin were administered as multiple doses by intraperitoneal injection (i.p.) on days 3, 4, 5 & 6 at 0.5 mg/kg/day and 2.5 mg/kg/day respectively.
(§2) Three human tumour cell lines were selected for analysis: H460 NSCLC (from ICT) and two breast carcinoma lines MDA-MB-468-NQ01 and MDA-MB-468-MOCK (both supplied by Onco-NX). Cells were cultured in RPMI 1640 cell culture medium supplemented with 1 mM sodium pyruvate, 2 mM L-glutamine and 10% foetal bovine serum (all from Sigma), and maintained as monolayer cultures at 37° C. in a humidified 5% CO2 environment.
(§3) Female Balb/C immunodeficient nude mice aged 6-8 weeks were used (Harlan UK, Blackthorn, UK). Mice were kept in cages housed in isolation cabinets in an air-conditioned room with regular alternating cycles of light and darkness. They received Teklad 2018 diet (Harlan, Blackthorn, UK) and water ad libitum. All animal procedures were carried out under a project licence issued by the UK Home Office and UKCCCR guidelines were followed throughout.
Cells were loaded into sterilised colour-coded PVDF Spectra/Por hollow fibres (HF) (Spectrum Medical Inc, Houston, Tex., USA). Briefly cells were harvested and resuspended in cell culture medium at the required cell density. This preparation was then loaded into the HF and the ends were clamped and heat-sealed. […]
(§4) Mice were sacrificed on day 7 post-implantation, fibres removed, and cell survival analysed using a modified MTT assay, comparing absorbances seen for the treated groups with the corresponding untreated control group. […]

MDA-MB-468-NQ01 = experiment: In vivo hollow fibre assay, MDA-MB-468-NQ01; parameters: species or system mice
Experimental: as §1, §2, §3
Cells were loaded into sterilised colour-coded PVDF Spectra/Por hollow fibres (HF) (Spectrum Medical Inc, Houston, Tex., USA). Briefly cells were harvested and resuspended in cell culture medium at the required cell density. This preparation was then loaded into the HF and the ends were clamped and heat-sealed. The HF was then cut into 1.5 cm lengths which were again heat-sealed at both ends, and then transferred to 6-well plates containing medium before implantation for the in vivo experiments, or were incubated at 37° C. in a humidified 5% CO2 environment for varying times before processing using the modified MTT assay as described below.
For the in vivo experiments, under brief inhalation anaesthesia (2% isoflurane), one loaded hollow fibre for each of the cell lines was transplanted intraperitoneally or subcutaneously on the dorsal flank of each mouse and the mice were allowed to recover. Each group consisted of 6 mice and the implantation day was termed ‘day 0’.
For assessment of the therapeutic response of Es5 (4.65), on days 3, 4, 5 & 6 mice were treated with Es5 (4.65) at 0.5 mg/kg/day or Doxorubicin at 2.5 mg/kg/day.
Mice were sacrificed on day 7 post-implantation, fibres removed, and cell survival analysed using a modified MTT assay, comparing absorbances seen for the treated groups with the corresponding untreated control group. Statistical analysis was carried out using a Student's t-test.

MDA-MB-468-MOCK = experiment: In vivo hollow fibre assay, MDA-MB-468-MOCK; settings: fibres at s.c. site; i.p. dosing days 3-6; nude mice
Experimental: as §1, §2
as §3, with “All animal procedures were carried out under a project licence issued by the UK Home Office and UKCCCR guidelines were followed throughout.” left out
as §4

recombinant human DTD = recombinant human DTD (Homo sapiens, UniProt P15559); settings: Beall et al.; Ross et al.; cited from earlier work
Chain of recombinant human DTD (P15559 whole entry): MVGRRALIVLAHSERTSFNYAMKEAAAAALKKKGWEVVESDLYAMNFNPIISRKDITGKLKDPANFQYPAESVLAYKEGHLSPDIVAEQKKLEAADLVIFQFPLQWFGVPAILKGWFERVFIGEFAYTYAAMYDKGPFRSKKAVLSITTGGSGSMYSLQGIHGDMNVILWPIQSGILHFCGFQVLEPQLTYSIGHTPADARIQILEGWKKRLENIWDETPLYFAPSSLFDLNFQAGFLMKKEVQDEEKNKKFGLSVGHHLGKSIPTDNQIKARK

MDA468 cells = experiment: Combination index at IC50 with other anti-cancer agents in MDA468 cells; assay type: cell-based, human
NQ01 cells = experiment: Combination index at IC50 with other anti-cancer agents in NQ01 cells; assay type: cell-based, human
[3] = cited from earlier work
[4] = Solubility (aqueous and organic)
[5] = Stability in aqueous and organic solution

O=c1[nH]cc(F)c(=O)[nH]1 [5-fluorouracil]
IC50 (MDA468; Homo sapiens): 7960 nM
IC50 (MDA NQ01; Homo sapiens, MTT assay): 12000 nM

N.N.[Cl][Pt][Cl] [Cisplatin]
IC50 (MDA468): 675 nM
IC50 (MDA NQ01; MTT assay): 570 nM

[Cl][Co][Cl] [Cobalt chloride]
IC50 (MDA468): 35000 nM
IC50 (MDA NQ01; MTT assay): 54000 nM

COc1cccc(C(=O)OCC2=C(N3CC3)C(=O)C(C)=C(N3CC3)C2=O)c1OC [Compound 4-05]
half-life (physchem [1]): < 10 min

COc1ccc(OC)c(C(=O)OCC2=C(N3CC3)C(=O)C(C)=C(N3CC3)C2=O)c1 [Compound 4-07]
half-life (physchem [1]): < 20 min

COc1ccc(C(=O)OCC2=C(N3CC3)C(=O)C(C)=C(N3CC3)C2=O)cc1OC [Compound 4-09]
half-life (physchem [1]): < 30 min

COc1ccc(C(=O)OCC2=C(N3CC3)C(=O)C(C)=C(N3CC3)C2=O)c(OC)c1 [Compound 4-10]
half-life (physchem [1]): < 30 min

COc1cccc(OC)c1C(=O)OCC1=C(N2CC2)C(=O)C(C)=C(N2CC2)C1=O [Compound 4-11]
half-life (physchem [1]): < 30 min

COc1cc(C(=O)OCC2=C(N3CC3)C(=O)C(C)=C(N3CC3)C2=O)cc(OC)c1OC [Compound 4-14]
half-life (physchem [1]): < 30 min

CC1=C(N2CC2)C(=O)C(COC(=O)c2ccc([N+](=O)[O-])cc2)=C(N2CC2)C1=O [Compound 4-20]
half-life (physchem [1]): 20 min

CC1=C(N2CC2)C(=O)C(COC(=O)C(C)C)=C(N2CC2)C1=O [Compound 4-36]
half-life (physchem [1]): < 30 min

CCC(=O)OCC1=C(N2CC2)C(=O)C(C)=C(N2CC2)C1=O [Compound 4-38]
half-life (physchem [1]): 20 min

CC1=C(N2CC2)C(=O)C(COC(=O)C(C)(C)C)=C(N2CC2)C1=O [Compound 4-39]
half-life (physchem [1]): < 30 min

CC1=C(N2CC2)C(=O)C(CCCO)=C(N2CC2)C1=O [Compound 4-61, 2,5-Bisaziridin-1-yl-3-(3-hydroxypropyl)-6-methyl-1,4-benzoquinone]
half-life at 50 μM (physchem [2]): > 1440 min
IC50 (MDA468; Homo sapiens): 17 nM
IC50 (MDA NQ01; Homo sapiens, MTT assay): 0.41 nM
DT diaphorase enhancement ratio (MDA NQ01; IC50 MDA 468 / IC50 MDA NQO1): 41
selectivity towards cells that express DT-diaphorase (MDA NQ01; IC50 values, MTT assay): excellent selectivity
half-life at 50 μM (physchem [1]): > 1440 min

CC(=O)OCCC1=C(N2CC2)C(=O)C(C)=C(N2CC2)C1=O [Compound 4-70]
half-life (physchem [1]): < 60 min

CC1=C(N2CC2)C(=O)C(CCOC(=O)c2ccccc2)=C(N2CC2)C1=O [Compound 4-71]
half-life (physchem [1]): < 60 min

Nc1ccn([C@@H]2O[C@H](CO)[C@@H](O)[C@@H]2O)c(=O)n1 [Cytosine arabinoside (ARA-C), Cytosine arabinoside]
IC50 (MDA468): 250 nM
IC50 (MDA NQ01; MTT assay): 240 nM

CC(=O)O[C@@]12CO[C@@H]1C[C@H](O)[C@@]1(C)C(=O)[C@H](O)C3=C(C)[C@@H](OC(=O)[C@H](O)[C@@H](NC(=O)OC(C)(C)C)c4ccccc4)C[C@@](O)([C@@H](OC(=O)c4ccccc4)[C@H]21)C3(C)C [Docetaxel]
IC50 (MDA468; Homo sapiens): 1.15 nM
IC50 (MDA NQ01; Homo sapiens, MTT assay): 1.88 nM

COc1cccc2c1C(=O)c1c(O)c3c(c(O)c1C2=O)C[C@@](O)(C(=O)CO)C[C@@H]3O[C@H]1C[C@H](N)[C@H](O)[C@H](C)O1 [Doxorubicin, reference compound]
cell survival compared to the untreated control, H460, s.c. site (H460 NSCLC): did not demonstrate significant efficacy
cell survival compared to the untreated control, MDA-MB-468-NQ01, s.c. site (MDA-MB-468-NQ01; fibres at s.c. site, i.p. dosing days 3-6, nude mice): did not demonstrate significant efficacy
efficacy in the NQ01-expressing compared to the Mock MDA-MB-468 cell line (MDA-MB-468-NQ01; hollow fibre assay): little difference
cell survival compared to the untreated control, MDA-MB-468-MOCK, s.c. site (MDA-MB-468-MOCK): did not demonstrate significant efficacy

COc1cccc2c1C(=O)c1c(O)c3c(c(O)c1C2=O)C[C@@](O)(C(=O)CO)C[C@@H]3O[C@H]1C[C@H](N)[C@@H](O)[C@H](C)O1 [Epirubicin]
IC50 (MDA468; Homo sapiens): 23.2 nM
IC50 (MDA NQ01; Homo sapiens, MTT assay): 27.5 nM

CC1=C(N2CC2)C(=O)C(C)=C(N2CC2)C1=O [MeDZQ, 2,5-diaziridinyl-3,6-dimethyl-1,4-benzoquinone]
effectiveness as a substrate for recombinant human DTD relative to mitomycin C (recombinant human DTD): more than 150 fold

CN(Cc1cnc2nc(N)nc(N)c2n1)c1ccc(C(=O)N[C@@H](CCC(=O)O)C(=O)O)cc1 [Methotrexate]
IC50 (MDA468; Homo sapiens): 45 nM
IC50 (MDA NQ01; Homo sapiens, MTT assay): 27 nM

CO[C@@]12[C@H](COC(N)=O)C3=C(C(=O)C(C)=C(N)C3=O)N1C[C@@H]1N[C@@H]12 [Mitomycin C]
IC50 (MDA468): 50 nM
IC50 (MDA NQ01; MTT assay): 10 nM
MDA468 to NQ01 differential (MDA NQ01): ~5 fold

CC1=C(N2CC2)C(=O)C(CO)=C(N2CC2)C1=O [RH1, 2,5-diaziridiny 1-3-(hydroxymethyl)-6-methyl-1,4-benzoquinone]
IC50 (MDA468): 4.41 nM and 3.5 nM
IC50 (MDA NQ01; MTT assay): 0.12 nM
MDA468 to NQ01 differential (MDA NQ01): > 30 fold
Combination index at IC50 with ARC-C in MDA468 cells (MDA468 cells; with ARC-C): 1.45 (slight
Combination index at IC50 with Cis-platinum in MDA468 (MDA468 cells; with Cis-platinum): 0.499 (synergy)
Combination index at IC50 with Docetaxel in MDA468 cells (MDA468 cells; with Docetaxel): 0.850 (slight
Combination index at IC50 with Epirubicin in MDA468 cells (MDA468 cells; with Epirubicin): 4.81 (strong
Combination Index at IC50 with Mitomycin C in MDA468 cells (MDA468 cells; with Mitomycin C): 0.577 (synergy)
Combination index at IC50 with cobalt chloride in MDA468 cells (MDA468 cells; with cobalt chloride): 0.170 (strong
Combination index at IC50 with ARA-C in NQ01 cells (NQ01 cells; with ARA-C): 1.22 (slight
Combination index at IC50 with Cis-platinum in MDA NQ01 (NQ01 cells; with Cis-platinum): 0.672 (synergy)
Combination index at IC50 with Docetaxel in NQ01 cells (NQ01 cells; with Docetaxel): 0.864 (slight
Combination index at IC50 with Epirubicin in NQ01 cells (NQ01 cells; with Epirubicin): 2.09 (antagonism)
Combination Index at IC50 with Mitomycin C in NQ01 cells (NQ01 cells; with Mitomycin C): 1.2 (slight
Combination index at IC50 with cobalt chloride in NQ01 cells (NQ01 cells; with cobalt chloride): 0.80 (moderate
pH stability, t1/2 ([3]; pH 4.16, from AAPS PharmSciTech 2007): t1/2 = 0.07 days
pH stability, t1/2 ([3]; pH 7.33, from AAPS PharmSciTech 2007): t1/2 = 43.52 days
pH stability, t1/2 ([3]; pH 9.82, nearest comparison from AAPS PharmSciTech 2007, 8 (1) Article 16): t1/2 = 0.96 days
Temperature stability, t90 (Temperature stability; 4 C.): 4 C. t90 >7 days
Temperature stability, t90 (Temperature stability; 40 C.): 40 C. t90 2 days
Temperature stability, t1/2 (Temperature stability; 55 C.): 55 C. t1/2 2 days
Temperature stability, t90 (Temperature stability; Ambient): Ambient t90 3 days
Solubility (organic) ([4]; DMSO/chloroform): >30 mg/mL
Solubility (aqueous) ([4]; water): 0.5 mg/mL (water) (≈ 2.13 mM)
Stability (aqueous) [5]: >7 days
Stability (organic) ([5]; in words): months

CC[C@]1(O)C[C@@H]2CN(CCc3c([nH]c4ccccc34)[C@@](C(=O)OC)(c3cc4c(cc3OC)N(C)[C@H]3[C@@](O)(C(=O)OC)[C@H](OC(C)=O)[C@]5(CC)C=CCN6CC[C@]43[C@@H]65)C2)C1 [Vinblastine]
IC50 (MDA468; Homo sapiens): 16 nM
IC50 (MDA NQ01; Homo sapiens, MTT assay): 18.3 nM
